Source: ChEMBL document CHEMBL5291721, “A preclinical secondary pharmacology resource illuminates target-adverse drug reaction associations of marketed drugs” (Nat Commun, 2023)

Key:
[1] = biological target: T1, Alpha-1A adrenergic receptor (Homo sapiens, UniProt P35348); type: functional, cell-based
T1 sequence (P35348 whole entry): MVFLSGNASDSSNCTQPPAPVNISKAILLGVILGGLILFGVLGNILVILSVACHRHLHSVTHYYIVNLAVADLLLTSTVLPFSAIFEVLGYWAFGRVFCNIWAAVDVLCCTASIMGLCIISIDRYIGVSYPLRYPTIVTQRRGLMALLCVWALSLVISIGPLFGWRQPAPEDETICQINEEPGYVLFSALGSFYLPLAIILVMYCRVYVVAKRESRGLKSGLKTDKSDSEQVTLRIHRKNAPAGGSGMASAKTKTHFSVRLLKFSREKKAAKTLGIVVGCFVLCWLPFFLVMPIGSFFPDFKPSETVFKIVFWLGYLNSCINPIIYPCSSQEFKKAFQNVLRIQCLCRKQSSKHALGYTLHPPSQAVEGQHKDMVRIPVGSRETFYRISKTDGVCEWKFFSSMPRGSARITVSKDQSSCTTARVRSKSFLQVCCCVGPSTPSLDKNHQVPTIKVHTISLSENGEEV

D(1A) dopamine receptor = D(1A) dopamine receptor (Homo sapiens, UniProt P21728)
Prothrombin = Prothrombin (Homo sapiens, UniProt P00734); type: functional
Histamine H3 receptor = Histamine H3 receptor (Homo sapiens, UniProt Q9Y5N1)
[2] = biological target: T2, 5-hydroxytryptamine receptor 1A (Homo sapiens, UniProt P08908)
T2 sequence (P08908 whole entry): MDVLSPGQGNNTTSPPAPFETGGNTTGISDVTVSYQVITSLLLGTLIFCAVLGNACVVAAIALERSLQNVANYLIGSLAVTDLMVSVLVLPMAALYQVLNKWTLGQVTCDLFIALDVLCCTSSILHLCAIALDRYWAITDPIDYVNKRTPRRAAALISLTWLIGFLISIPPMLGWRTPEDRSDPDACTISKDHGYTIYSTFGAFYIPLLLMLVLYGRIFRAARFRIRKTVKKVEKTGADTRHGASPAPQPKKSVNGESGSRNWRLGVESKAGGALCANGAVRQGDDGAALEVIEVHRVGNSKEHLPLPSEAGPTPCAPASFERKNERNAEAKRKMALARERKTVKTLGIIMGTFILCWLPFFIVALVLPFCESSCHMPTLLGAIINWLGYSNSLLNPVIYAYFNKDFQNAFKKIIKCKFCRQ

[3] = biological target: 5-hydroxytryptamine receptor 2B (Homo sapiens, UniProt P41595); type: functional, cell-based
[4] = biological target: T3, Amine oxidase [flavin-containing] A (Homo sapiens, UniProt P21397); type: functional
T3 sequence (P21397 whole entry): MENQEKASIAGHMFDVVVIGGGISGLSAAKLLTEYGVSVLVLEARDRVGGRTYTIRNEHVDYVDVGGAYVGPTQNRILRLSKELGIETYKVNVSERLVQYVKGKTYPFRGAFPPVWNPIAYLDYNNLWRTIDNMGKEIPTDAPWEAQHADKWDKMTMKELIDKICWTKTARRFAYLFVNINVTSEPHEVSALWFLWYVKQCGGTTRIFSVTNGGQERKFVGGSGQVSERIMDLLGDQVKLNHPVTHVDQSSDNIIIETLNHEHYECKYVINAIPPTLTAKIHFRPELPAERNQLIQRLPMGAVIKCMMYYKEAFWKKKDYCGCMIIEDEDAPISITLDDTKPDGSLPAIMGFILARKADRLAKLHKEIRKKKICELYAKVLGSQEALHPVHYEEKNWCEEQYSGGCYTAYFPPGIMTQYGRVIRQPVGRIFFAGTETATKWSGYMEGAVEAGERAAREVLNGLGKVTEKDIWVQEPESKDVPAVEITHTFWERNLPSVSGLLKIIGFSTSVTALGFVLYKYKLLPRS

Progesterone receptor = biological target: T4, Progesterone receptor (Homo sapiens, UniProt P06401)
T4 sequence (P06401 whole entry): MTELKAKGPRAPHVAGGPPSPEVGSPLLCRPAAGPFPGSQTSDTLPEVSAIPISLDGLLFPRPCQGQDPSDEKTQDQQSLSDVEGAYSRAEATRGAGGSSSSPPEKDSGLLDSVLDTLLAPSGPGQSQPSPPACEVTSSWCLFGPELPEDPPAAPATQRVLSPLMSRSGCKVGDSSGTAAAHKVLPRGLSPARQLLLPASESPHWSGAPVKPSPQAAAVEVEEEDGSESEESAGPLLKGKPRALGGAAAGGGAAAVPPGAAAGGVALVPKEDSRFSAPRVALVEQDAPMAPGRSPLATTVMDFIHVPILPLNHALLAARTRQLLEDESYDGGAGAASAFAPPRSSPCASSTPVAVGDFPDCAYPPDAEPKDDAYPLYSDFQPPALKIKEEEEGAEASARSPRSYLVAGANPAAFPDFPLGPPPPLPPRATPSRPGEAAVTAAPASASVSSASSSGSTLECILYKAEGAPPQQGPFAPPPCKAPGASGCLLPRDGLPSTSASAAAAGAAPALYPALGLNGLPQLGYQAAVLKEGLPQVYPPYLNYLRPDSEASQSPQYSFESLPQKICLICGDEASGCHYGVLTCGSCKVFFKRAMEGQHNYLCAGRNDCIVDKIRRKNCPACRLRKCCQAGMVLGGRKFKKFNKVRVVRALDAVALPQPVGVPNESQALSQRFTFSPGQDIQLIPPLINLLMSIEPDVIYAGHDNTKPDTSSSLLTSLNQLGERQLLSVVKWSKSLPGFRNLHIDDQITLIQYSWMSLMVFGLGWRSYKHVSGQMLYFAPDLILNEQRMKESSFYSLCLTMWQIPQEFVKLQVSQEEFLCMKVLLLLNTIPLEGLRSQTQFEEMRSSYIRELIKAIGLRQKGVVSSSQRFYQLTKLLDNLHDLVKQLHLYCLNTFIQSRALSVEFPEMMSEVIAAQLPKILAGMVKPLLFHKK

[5] = biological target: T5, Prostaglandin G/H synthase 1 (Homo sapiens, UniProt P23219); type: functional
[6] = biological target: T5, Prostaglandin G/H synthase 1; type: functional; remark: listed apart in the source
[7] = biological target: Sodium-dependent dopamine transporter (Homo sapiens, UniProt Q01959)

Measured: AC50
Also: assay procedure not described here.

Sequence of 5-hydroxytryptamine receptor 2B (P41595 whole entry): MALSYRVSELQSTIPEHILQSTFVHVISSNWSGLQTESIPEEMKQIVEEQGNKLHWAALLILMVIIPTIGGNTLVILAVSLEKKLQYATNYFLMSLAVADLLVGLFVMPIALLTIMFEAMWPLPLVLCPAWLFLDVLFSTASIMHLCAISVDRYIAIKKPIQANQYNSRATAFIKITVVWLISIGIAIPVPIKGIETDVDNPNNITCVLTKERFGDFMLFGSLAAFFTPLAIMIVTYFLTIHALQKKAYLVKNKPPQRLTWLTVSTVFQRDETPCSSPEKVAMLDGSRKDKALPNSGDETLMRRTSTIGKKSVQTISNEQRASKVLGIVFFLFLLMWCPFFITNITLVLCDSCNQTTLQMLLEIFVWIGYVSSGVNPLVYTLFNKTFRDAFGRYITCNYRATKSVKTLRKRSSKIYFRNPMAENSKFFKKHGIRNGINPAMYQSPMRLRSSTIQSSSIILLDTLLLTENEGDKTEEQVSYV
Sequence of Histamine H3 receptor (Q9Y5N1 whole entry): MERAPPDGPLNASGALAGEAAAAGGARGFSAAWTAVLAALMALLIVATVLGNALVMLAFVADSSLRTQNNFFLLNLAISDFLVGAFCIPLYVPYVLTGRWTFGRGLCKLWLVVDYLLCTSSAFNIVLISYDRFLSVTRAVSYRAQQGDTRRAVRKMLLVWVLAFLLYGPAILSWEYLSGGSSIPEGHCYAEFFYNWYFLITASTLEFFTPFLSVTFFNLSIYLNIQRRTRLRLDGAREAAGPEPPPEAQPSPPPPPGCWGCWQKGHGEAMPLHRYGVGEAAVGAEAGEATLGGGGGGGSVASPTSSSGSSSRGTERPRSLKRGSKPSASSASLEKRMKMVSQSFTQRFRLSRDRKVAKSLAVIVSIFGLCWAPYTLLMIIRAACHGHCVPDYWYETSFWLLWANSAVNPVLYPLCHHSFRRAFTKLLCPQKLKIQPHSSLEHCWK
Sequence of Sodium-dependent dopamine transporter (Q01959 whole entry): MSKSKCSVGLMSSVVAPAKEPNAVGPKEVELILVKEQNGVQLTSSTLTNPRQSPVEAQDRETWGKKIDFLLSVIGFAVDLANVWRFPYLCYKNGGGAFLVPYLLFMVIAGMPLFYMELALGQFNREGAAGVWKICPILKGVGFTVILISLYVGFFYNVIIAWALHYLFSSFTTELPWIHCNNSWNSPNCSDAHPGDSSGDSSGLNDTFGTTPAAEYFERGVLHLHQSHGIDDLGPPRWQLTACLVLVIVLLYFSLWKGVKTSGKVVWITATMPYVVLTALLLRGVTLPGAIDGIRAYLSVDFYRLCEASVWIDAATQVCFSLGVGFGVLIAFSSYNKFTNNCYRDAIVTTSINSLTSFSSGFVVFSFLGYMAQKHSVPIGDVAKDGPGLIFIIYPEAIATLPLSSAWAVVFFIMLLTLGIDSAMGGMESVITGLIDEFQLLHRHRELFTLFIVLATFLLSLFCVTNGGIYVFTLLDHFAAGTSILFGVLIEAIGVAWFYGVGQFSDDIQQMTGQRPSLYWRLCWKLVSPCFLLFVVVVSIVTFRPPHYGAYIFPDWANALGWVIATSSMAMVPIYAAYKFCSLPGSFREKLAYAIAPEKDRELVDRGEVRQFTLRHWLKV
T5 sequence (P23219 whole entry): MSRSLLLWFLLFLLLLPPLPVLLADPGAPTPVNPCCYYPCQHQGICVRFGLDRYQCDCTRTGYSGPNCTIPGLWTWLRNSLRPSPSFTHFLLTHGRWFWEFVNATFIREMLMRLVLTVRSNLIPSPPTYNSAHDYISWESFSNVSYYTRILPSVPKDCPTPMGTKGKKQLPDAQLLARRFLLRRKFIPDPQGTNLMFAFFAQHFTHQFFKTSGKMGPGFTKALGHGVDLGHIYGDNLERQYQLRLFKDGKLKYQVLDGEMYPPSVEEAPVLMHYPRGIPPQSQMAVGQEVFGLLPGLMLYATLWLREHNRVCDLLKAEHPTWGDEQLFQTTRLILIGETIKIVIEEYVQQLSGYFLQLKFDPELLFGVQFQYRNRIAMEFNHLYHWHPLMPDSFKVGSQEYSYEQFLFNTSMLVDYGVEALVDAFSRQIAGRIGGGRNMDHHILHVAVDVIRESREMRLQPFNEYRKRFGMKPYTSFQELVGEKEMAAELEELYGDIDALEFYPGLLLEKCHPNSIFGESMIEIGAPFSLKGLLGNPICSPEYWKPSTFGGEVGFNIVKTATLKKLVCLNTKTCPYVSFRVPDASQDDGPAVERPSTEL
Sequence of D(1A) dopamine receptor (P21728 whole entry): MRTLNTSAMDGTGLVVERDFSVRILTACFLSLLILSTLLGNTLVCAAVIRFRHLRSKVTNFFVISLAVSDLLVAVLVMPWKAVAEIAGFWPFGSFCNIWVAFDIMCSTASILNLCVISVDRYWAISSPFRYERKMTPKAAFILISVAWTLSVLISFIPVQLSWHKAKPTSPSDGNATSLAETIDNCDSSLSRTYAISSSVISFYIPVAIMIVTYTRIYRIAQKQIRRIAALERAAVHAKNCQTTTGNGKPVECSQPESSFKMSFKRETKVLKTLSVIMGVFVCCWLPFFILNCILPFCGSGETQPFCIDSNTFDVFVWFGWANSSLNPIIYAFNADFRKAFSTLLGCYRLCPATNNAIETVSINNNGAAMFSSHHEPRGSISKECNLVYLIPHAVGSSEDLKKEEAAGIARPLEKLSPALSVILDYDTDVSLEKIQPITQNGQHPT

C[C@@H](O)[C@H]1C(=O)N2C(C(=O)O)=C([C@H]3CCCO3)S[C@H]12 [FAROPENEM]
11.4 µM: [5]
14.7 µM: [6]
> 30 µM: all other assays above

CCOC(=O)c1ccc(OC(=O)CCCCCNC(=N)N)cc1 [GABEXATE]
14.8 µM: [7]
0.17 µM: Prothrombin
> 30 µM: all other assays above

CCCCC/C=C\C/C=C\C/C=C\CCCCC(=O)O [GAMOLENIC ACID]
4.91 µM: [5]
11.6 µM: [6]
> 30 µM: all other assays above

COCCOc1cnc(NS(=O)(=O)c2ccccc2)nc1 [GLYMIDINE]
> 30 µM: all assays above

CC(N)CCCC(C)(C)O (configuration not stated) [HEPTAMINOL]
> 30 µM: all assays above

CCC(=O)O[C@]1(C(=O)COC(C)=O)CC[C@H]2[C@@H]3CCC4=CC(=O)CC[C@]4(C)[C@H]3[C@@H](O)C[C@@]21C [HYDROCORTISONE ACEPONATE]
0.326 µM: Progesterone receptor
> 30 µM: all other assays above

O=[N+]([O-])O[C@H]1CO[C@H]2[C@@H]1OC[C@H]2O[N+](=O)[O-] [ISOSORBIDE DINITRATE]
> 30 µM: all assays above
